Measurements reported in patent publication US10336792B2, “Antimicrobial peptide dendrimers” (priority 2014, dated 2019).
≈ marks a conversion by molar mass, not a printed value. Positions of bridges follow the written chain, without caps; N, C: chain ends. Non-standard residues stand in square brackets, D forms with d. Residues, ends and D or L forms follow the SMILES beside them. Groups on a side chain read outwards from the residue. Chains are numbered I, II in the order given.

Experiments:
[1] = tested on: P. aeruginosa PA01 (WT); type: cell-based, Pseudomonas aeruginosa; settings: WT
Description: (§1) Antimicrobial activity was assayed against P. aeruginosa PA01 (WT), P. aeruginosa PT1482 (A-), PT1485 (A-B-), PT1149 (A-B-C-algC), PT331 (Z61) (LPS mutants), P. aeruginosa PEJ2.6, PEJ9.1, ZEM1.A, ZEM9.A (clinical isolates from Université de Genève/Centre Médical Universitaire), Burkholderia cenocepacia (B. ceno), Staphylococcus aureus (S. aureus, MRSA strain) and Acinetobacter baumannii (A. baum) (clinical isolates from Université de Genève/Centre Médical Universitaire). To determine the minimal inhibitory concentration (MIC), microdilution broth method was used. A colony of bacteria was grown in MH-medium overnight at 37° C. The samples were prepared as stock solutions of 8 mg mL^−1 in H2O, diluted to the beginning concentration of 32, 64, 128 or 256 μg/mL in 300 μL MH-medium, added to the first well of 96-well microtiterplate (TPP, untreated) and diluted serially by ½. The concentration of the bacteria was quantified by measuring absorbance at 600 nm and diluted to OD600=0.022 in MH-medium. The sample solutions (150 μL) were mixed with 4 μL diluted bacterial suspension with a final inoculation of about of 5×10^5 CFU. The plates were incubated at 37° C. until satisfactory growth (˜18 h). For each test, two columns of the plate were kept for sterility control (SC, broth only) and growth control (GC, broth with bacterial inoculums, no antibiotics). The minimal inhibitory concentration (MIC) was defined as the lowest concentration of the antimicrobial substance (peptide dendrimer) that inhibited visible growth of the tested bacteria with the unaided eye. For microbiological study Polymyxin was used as references.

[2] = tested on: P. aeruginosa PEJ2.6, PEJ9.1, ZEM1.A, ZEM9.A (clinical isolates); type: cell-based, Pseudomonas aeruginosa; settings: PEJ2.6, PEJ9.1, ZEM1.A, ZEM9.A (clinical isolates)
Description: as §1
(§2) Ten of the most promising compounds (FIG. 5) were tested for their efficiency against four clinical isolates of P. aeruginosa (ZEM9.A, ZEM1.A, PEJ2.6, PEJ9.1), one S. aureus (COL, MRSA reference strain) and one A. baumannii strain. For the experiments in Genève the peptide dendrimers and reference compounds (polymyxin) were dissolved in PBS and the assay was carried out in Müller-Hinton (MH) broth with a two-fold dilution.

[3] = tested on: Acinetobacter baumannii; type: cell-based
Description: as §1, §2

[4] = tested on: Staphylococcus aureus (COL, MRSA reference strain); type: cell-based; settings: COL, reference strain
Description: as §1, §2

[5] = tested on: male wistar rats; experiment: In-vivo toxicity study, single i.v. injection; parameters: species or system rat; settings: for visible effects and behaviour after injection: 2 mg/kg single i.v. dose into tail vein, two rats; for survival rate: 2 mg/kg single i.v. dose, monitored 2 days
Source text: 4-6 weeks old male wistar rats (weight range 200-500 g) were used in toxicity experiments. Rats were obtained from Zentrale Tierställe Bern (Department of Clinical Research from University of Bern) and housed 4 per cage. Each experimental group includes two rats. All procedures, care and handling of the animals were reviewed and approved by the Veterinärdienst of Kanton Bern, Schweiz and execute in collaboration with the group of Prof. Hugues Abriel from Department of Clinical Research from University of Bern.
Rats were anesthetized with 4% isoflurane and 1 L/min oxygen in an induction chamber. When the rats were sleeping they were transferred on a clinical drape and anesthetized with 1-2% isoflurane and 0.8 l/min oxygen via a mask. The tail was warmed up with warm water and disinfected with 70% ethanol. The intravenous (i.v.) injections into the tail vein included a single dose of the AMPD of 2 mg/kg rat in 500 μL PBS. Before injection each rat was weighted individually and the exact dosage was determined. All rats, including control groups with no injection and i.v. injection of 500 μL PBS, were monitored for their survival and behavior for two days.
The compounds MSt-112, a 3rd generation AMPD with KL motive, MSt-181 its D-enantiomer analogue, MSt-242, a the 3rd generation with RL motive, and MSt-114 with Tyr instead of Lys in the 3rd generation were used for in vivo experiments with male wistar rats to assess their toxicity. These compounds were selected due to their high potencies and high MHCs values, which are at least 10 times higher than their activities. Each compound (concentration of 2 mg/kg) was applied to two rats by intravenous injection into the tail vein to observe if the AMPDs are well tolerated or may cause adverse effects. The concentration used was approx. 5-10 times higher than the MICs. […] The behaviour of the rats was normal. […] Therefore it seems that rats tolerate AMPDs very well, without visible site effects or even casualties.

[6] = tested on: Bacillus subtilis (strain BR151); type: cell-based; settings: strain BR151
Method in brief: (§3)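 Broth microdilution MIC in LB; overnight cultures diluted to OD600 0.001 and mixed 1:1 with ⅔-serially diluted samples (stock 1 mg mL^−1 in H2O), 37° C for 18-24 h. MTT (0.1%) added; MIC read by eye as lowest concentration inhibiting visible growth (yellow).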

[7] = tested on: Escherichia coli (strain DH5α); type: cell-based; settings: DH5α
Method in brief: as §3

[8] = tested on: Pseudomonas aeruginosa (strain PA01); experiment: microbe, parasite or virus in culture; type: cell-based; settings: strain
Method in brief: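 P. aeruginosa PAO1 grown overnight in LB, diluted to OD600 0.001 and mixed with ⅔-step peptide dilutions, then incubated at 37 °C for 18–24 h. After MTT staining, the lowest concentration with no visible growth was read by eye as the MIC.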

| Compound | MIC PAO1 [1] [µg/mL] | MIC P. aeruginosa MDR clinical isolate PEJ2.6 [2] [µg/mL] | MIC P. aeruginosa MDR clinical isolate PEJ9.1 [2] [µg/mL] | MIC P. aeruginosa MDR clinical isolate ZEM1A [2] [µg/mL] | MIC P. aeruginosa MDR clinical isolate ZEM9A [2] [µg/mL] | MIC A. baumannii ATCC19606 [3] [µg/mL] | MIC S. aureus COL [4] [µg/mL] | visible effects and behaviour after injection [5] | survival rate [5] [%] | MIC B. subtilis BR151 [6] [µg/mL] | MIC E. coli DH5α [7] [µg/mL] | MIC P. aeruginosa PAO1 [8] [µg/mL] | MIC P. aeruginosa ZEM9.A [2] [µg/mL] | MIC S. aureus (COL, MRSA reference strain) [4] |
| --- | --- | --- | --- | --- | --- | --- | --- | --- | --- | --- | --- | --- | --- | --- |
| CC(C)C[C@H](NC(=O)[C@H](CCCCN)NC(=O)[C@H](CCCCNC(=O)[C@H](CC(C)C)NC(=O)[C@H](CCCCN)NC(=O)[C@H](CCCCNC(=O)[C@H](CC(C)C)NC(=O)[C@@H](N)CCCCN)NC(=O)[C@H](CC(C)C)NC(=O)[C@@H](N)CCCCN)NC(=O)[C@H](CC(C)C)NC(=O)[C@H](CCCCN)NC(=O)[C@H](CCCCNC(=O)[C@H](CC(C)C)NC(=O)[C@@H](N)CCCCN)NC(=O)[C@H](CC(C)C)NC(=O)[C@@H](N)CCCCN)C(N)=O [Compound G2KL] (I: H-KLK([Leu-Lys])KLKKL-NH2 / II: H-KLK([Leu-Lys])KL; amide I:6-II:C; N-terminus assumed) | >64 | >64 | >64 | >64 | >64 | >64 | >64 | – | – | – | – | – | – | – |
| CC(C)C[C@@H](NC(=O)[C@@H](CCCCN)NC(=O)[C@@H](CCCCNC(=O)[C@@H](CC(C)C)NC(=O)[C@@H](CCCCN)NC(=O)[C@@H](CCCCNC(=O)[C@@H](CC(C)C)NC(=O)[C@@H](CCCCN)NC(=O)[C@@H](CCCCNC(=O)[C@@H](CC(C)C)NC(=O)[C@H](N)CCCCN)NC(=O)[C@@H](CC(C)C)NC(=O)[C@H](N)CCCCN)NC(=O)[C@@H](CC(C)C)NC(=O)[C@@H](CCCCN)NC(=O)[C@@H](CCCCNC(=O)[C@@H](CC(C)C)NC(=O)[C@H](N)CCCCN)NC(=O)[C@@H](CC(C)C)NC(=O)[C@H](N)CCCCN)NC(=O)[C@@H](CC(C)C)NC(=O)[C@@H](CCCCN)NC(=O)[C@@H](CCCCNC(=O)[C@@H](CC(C)C)NC(=O)[C@@H](CCCCN)NC(=O)[C@@H](CCCCNC(=O)[C@@H](CC(C)C)NC(=O)[C@H](N)CCCCN)NC(=O)[C@@H](CC(C)C)NC(=O)[C@H](N)CCCCN)NC(=O)[C@@H](CC(C)C)NC(=O)[C@@H](CCCCN)NC(=O)[C@@H](CCCCNC(=O)[C@@H](CC(C)C)NC(=O)[C@H](N)CCCCN)NC(=O)[C@@H](CC(C)C)NC(=O)[C@H](N)CCCCN)C(N)=O [MSt-181, (kl)8(kkl)4(kkl)2(kkl)] (I: H-[dK][dL][dK]([dL-dK])[dK][dL][dK][dK][dL][dK][dK][dL]-NH2 / II: H-[dK][dL][dK]([dL-dK])[dK][dL][dK][dK][dL] / III: H-[dK][dL][dK]([dL-dK])[dK][dL] / IV: H-[dK][dL][dK]([dL-dK])[dK][dL]; amide I:6-IV:C, I:9-II:C, II:6-III:C) | – | – | – | – | – | – | – | slightly bluish extremities which subsided after approx. 5 min | 100 | 2 (≈ 0.441 µM) | 1 (≈ 0.221 µM) | 4 (≈ 0.882 µM) | – | – |
| CC(C)C[C@H](NC(=O)[C@H](CCCNC(=N)N)NC(=O)[C@H](CCCCNC(=O)[C@H](CC(C)C)NC(=O)[C@H](CCCNC(=N)N)NC(=O)[C@H](CCCCNC(=O)[C@H](CC(C)C)NC(=O)[C@H](CCCNC(=N)N)NC(=O)[C@H](CCCCNC(=O)[C@H](CC(C)C)NC(=O)[C@@H](N)CCCNC(=N)N)NC(=O)[C@H](CC(C)C)NC(=O)[C@@H](N)CCCNC(=N)N)NC(=O)[C@H](CC(C)C)NC(=O)[C@H](CCCNC(=N)N)NC(=O)[C@H](CCCCNC(=O)[C@H](CC(C)C)NC(=O)[C@@H](N)CCCNC(=N)N)NC(=O)[C@H](CC(C)C)NC(=O)[C@@H](N)CCCNC(=N)N)NC(=O)[C@H](CC(C)C)NC(=O)[C@H](CCCNC(=N)N)NC(=O)[C@H](CCCCNC(=O)[C@H](CC(C)C)NC(=O)[C@H](CCCNC(=N)N)NC(=O)[C@H](CCCCNC(=O)[C@H](CC(C)C)NC(=O)[C@@H](N)CCCNC(=N)N)NC(=O)[C@H](CC(C)C)NC(=O)[C@@H](N)CCCNC(=N)N)NC(=O)[C@H](CC(C)C)NC(=O)[C@H](CCCNC(=N)N)NC(=O)[C@H](CCCCNC(=O)[C@H](CC(C)C)NC(=O)[C@@H](N)CCCNC(=N)N)NC(=O)[C@H](CC(C)C)NC(=O)[C@@H](N)CCCNC(=N)N)C(N)=O [MSt-242, (RL)8(KRL)4(KRL)2(KRL)] (I: H-RLK([Leu-Arg])RLKRLKRL-NH2 / II: H-RLK([Leu-Arg])RLKRL / III: H-RLK([Leu-Arg])RL / IV: H-RLK([Leu-Arg])RL; amide I:6-IV:C, I:9-II:C, II:6-III:C) | – | – | – | – | – | – | – | No visible effect | 100 | 11 (≈ 2.22 µM) | 3 (≈ 0.606 µM) | 8 (≈ 1.61 µM) | > 20 | below 20 μg/mL |
| CC(C)C[C@H](NC(=O)[C@H](CCCCN)NC(=O)[C@H](CCCCNC(=O)[C@H](CC(C)C)NC(=O)[C@H](CCCCN)NC(=O)[C@H](CCCCNC(=O)[C@H](CC(C)C)NC(=O)[C@H](CCCCN)NC(=O)[C@H](CCCCNC(=O)[C@H](Cc1ccc(O)cc1)NC(=O)[C@@H](N)CCCCN)NC(=O)[C@H](Cc1ccc(O)cc1)NC(=O)[C@@H](N)CCCCN)NC(=O)[C@H](CC(C)C)NC(=O)[C@H](CCCCN)NC(=O)[C@H](CCCCNC(=O)[C@H](Cc1ccc(O)cc1)NC(=O)[C@@H](N)CCCCN)NC(=O)[C@H](Cc1ccc(O)cc1)NC(=O)[C@@H](N)CCCCN)NC(=O)[C@H](CC(C)C)NC(=O)[C@H](CCCCN)NC(=O)[C@H](CCCCNC(=O)[C@H](CC(C)C)NC(=O)[C@H](CCCCN)NC(=O)[C@H](CCCCNC(=O)[C@H](Cc1ccc(O)cc1)NC(=O)[C@@H](N)CCCCN)NC(=O)[C@H](Cc1ccc(O)cc1)NC(=O)[C@@H](N)CCCCN)NC(=O)[C@H](CC(C)C)NC(=O)[C@H](CCCCN)NC(=O)[C@H](CCCCNC(=O)[C@H](Cc1ccc(O)cc1)NC(=O)[C@@H](N)CCCCN)NC(=O)[C@H](Cc1ccc(O)cc1)NC(=O)[C@@H](N)CCCCN)C(N)=O [MSt-114, (KY)8(KKL)4(KKL)2(KKL)] (I: H-KYK([Tyr-Lys])KLKKLKKL-NH2 / II: H-KYK([Tyr-Lys])KLKKL / III: H-KYK([Tyr-Lys])KL / IV: H-KYK([Tyr-Lys])KL; amide I:6-IV:C, I:9-II:C, II:6-III:C) | – | – | – | – | – | – | – | slightly bluish extremities which subsided after approx. 5 min | 100 | 13 (≈ 2.63 µM) | – | 2 (≈ 0.405 µM) | – | – |
